In US20240270762A1, “PENICILLIN-BINDING PROTEIN INHIBITORS” (priority 2021, published 2024):
Values after ≈ are worked out from the molar mass of the structure shown. Read-outs that look alike come from different tables or passages of the source.

How the values were obtained:
P. aeruginosa ATCC 27853 = assay: microbe, parasite or virus in culture; assay type: cell-based; details: Pseudomonas aeruginosa, ATCC27853, read-out: Minimum inhibitory concentration, P. aeruginosa ATCC 27853
P. aeruginosa CDC-0095 = assay: microbe, parasite or virus in culture; assay type: cell-based; details: Pseudomonas aeruginosa, CDC0095, read-out: Minimum inhibitory concentration, P. aeruginosa CDC-0095
A. baumannii CDC-0036 = assay: microbe, parasite or virus in culture; assay type: cell-based; details: Acinetobacter baumannii, CDC0036, read-out: MIC, A. baumannii CDC-0036
A. baumannii CDC-0045 = assay: microbe, parasite or virus in culture; assay type: cell-based; details: Acinetobacter baumannii, CDC0045, read-out: MIC, A. baumannii CDC-0045
[1] = test system: B. thailandensis ATCC 700388; assay: microbe, parasite or virus in culture; assay type: cell-based; details: Burkholderia thailandensis, ATCC700388, read-out: Minimum inhibitory concentration (MIC), B. thailandensis ATCC 700388
[2] = test system: B. humptydooensis ATCC BAA-2767; assay: microbe, parasite or virus in culture; assay type: cell-based; details: Burkholderia humptydooensis, ATCCBAA2767, read-out: Minimum inhibitory concentration (MIC), B. humptydooensis ATCC BAA-2767
P. aeruginosa CDC-0110 = assay: microbe, parasite or virus in culture; assay type: cell-based; details: Pseudomonas aeruginosa, CDC0110, read-out: Minimum inhibitory concentration, P. aeruginosa CDC-0110
N. gonorrhoeae FA1090 = assay: Liquid broth MIC in Fastidious broth; details: Neisseria gonorrhoeae
N. gonorrhoeae WHO G = assay: Liquid broth MIC in Fastidious broth; details: Neisseria gonorrhoeae
N. gonorrhoeae WHO L = assay: Liquid broth MIC in Fastidious broth; details: Neisseria gonorrhoeae
N. gonorrhoeae WHO Q = assay: Liquid broth MIC in Fastidious broth; details: Neisseria gonorrhoeae
[3] = biological target: T1, PBP3 from Pseudomonas aeruginosa (PAO1) (Pseudomonas aeruginosa, UniProt G3XD46); assay: Bocillin-FL fluorescence polarization competition binding, P. aeruginosa PBP3; details: Binding affinity to P. aeruginosa PBP3; fluorescence polarization competition binding assay using Bocillin-FL; read-out: P. aeruginosa PBP3 Potency
T1 construct: made in house
Method in brief: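 Purified PBPs pre-incubated with inhibitor (E. coli PBP3 1.5 μM, 30 min; P. aeruginosa PBP3 0.75 μM, A. baumannii PBP1a 1 μM and PBP3 0.2 μM, 15 min), then Bocillin-FL 0.1 μM (0.05 μM for PBP1a) added; FP read up to 60 min. EC50 = concentration halving bound Bocillin-FL.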

[4] = FA1090, read-out: Minimum Inhibitory Concentration (MIC), N. gonorrhoeae FA 1090
[5] = read-out: Minimum Inhibitory Concentration (MIC), N. gonorrhoeae WHO G
[6] = read-out: Minimum Inhibitory Concentration (MIC), N. gonorrhoeae WHO L
[7] = read-out: Minimum Inhibitory Concentration (MIC), N. gonorrhoeae WHO Q
[8] = FA1090, read-out: Minimum Inhibitory Concentration, FA 1090
[9] = read-out: Minimum Inhibitory Concentration, WHO G
[10] = read-out: Minimum Inhibitory Concentration, WHO L
[11] = read-out: Minimum Inhibitory Concentration, WHO Q

T1 sequence (G3XD46 whole entry): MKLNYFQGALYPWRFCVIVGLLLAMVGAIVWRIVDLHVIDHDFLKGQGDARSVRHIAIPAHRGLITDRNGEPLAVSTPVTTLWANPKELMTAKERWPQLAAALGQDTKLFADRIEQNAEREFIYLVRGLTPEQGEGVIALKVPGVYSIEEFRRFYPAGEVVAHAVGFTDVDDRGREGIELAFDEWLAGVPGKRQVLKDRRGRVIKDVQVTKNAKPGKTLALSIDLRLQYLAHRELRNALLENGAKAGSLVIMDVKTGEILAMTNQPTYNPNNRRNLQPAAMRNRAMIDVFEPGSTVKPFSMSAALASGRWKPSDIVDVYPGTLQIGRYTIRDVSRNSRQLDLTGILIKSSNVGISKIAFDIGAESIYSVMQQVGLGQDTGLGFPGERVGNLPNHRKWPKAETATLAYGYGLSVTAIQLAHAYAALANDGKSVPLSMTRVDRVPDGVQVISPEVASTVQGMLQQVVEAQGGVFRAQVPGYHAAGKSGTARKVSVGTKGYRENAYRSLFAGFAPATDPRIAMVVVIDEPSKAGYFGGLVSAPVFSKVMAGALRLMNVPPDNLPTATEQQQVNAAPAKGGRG

Row | SMILES | MIC (P. aeruginosa ATCC 27853) [µg/mL] | MIC (P. aeruginosa CDC-0095) [µg/mL] | MIC (A. baumannii CDC-0036) [µg/mL] | MIC (A. baumannii CDC-0045) [µg/mL] | MIC [1] [µg/mL] | MIC [2] [µg/mL] | MIC (P. aeruginosa CDC-0110) [µg/mL] | MIC (N. gonorrhoeae FA1090; [4]) [µg/mL] | MIC (N. gonorrhoeae WHO G; [5]) [µg/mL] | MIC (N. gonorrhoeae WHO L; [6]) [µg/mL] | MIC (N. gonorrhoeae WHO Q; [7]) [µg/mL] | IC50 [3] [µM] | MIC (N. gonorrhoeae FA1090; [8]) [µg/mL] | MIC (N. gonorrhoeae WHO G; [9]) [µg/mL] | MIC (N. gonorrhoeae WHO L; [10]) [µg/mL] | MIC (N. gonorrhoeae WHO Q; [11]) [µg/mL]
1 | O=C(NCCCN1CCN(C(=O)NC(C(=O)N[C@H]2Cc3ccc(F)c(C(=O)O)c3OB2O)c2cc(F)c(O)c(O)c2Cl)C(=O)C1=O)c1nccs1 (stereo partly drawn) [Example 211, (3R)-3-(2-(2-chloro-5-fluoro-3,4-dihydroxyphenyl)-2-(2,3-dioxo-4-(3-(thiazole-2-carboxamido)propyl)piperazine-1-carboxamido)acetamido)-7-fluoro-2-hydroxy-3,4-dihydro-2H-benzo[e][1,2]oxaborinine-8-carboxylic acid] | 2 to 4 (≈ 2.66 to 5.33 µM) | 2 to 4 (≈ 2.66 to 5.33 µM) | 2 to 4 (≈ 2.66 to 5.33 µM) | < 1 | 2 to 4 (≈ 2.66 to 5.33 µM) | < 1 | < 1 | 1 to 2 (≈ 1.33 to 2.66 µM) | 16 to 32 (≈ 21.3 to 42.6 µM) | > 64 | > 64 |  |  |  |  | 
2 | O=C(NCCN1CCN(C(=O)NC(C(=O)N[C@H]2Cc3ccc(F)c(C(=O)O)c3OB2O)c2cc(F)c(O)c(O)c2Cl)C(=O)C1=O)c1ccccc1 (stereo partly drawn) [Example 207, (3R)-3-(2-(4-(2-benzamidoethyl)-2,3-dioxopiperazine-1-carboxamido)-2-(2-chloro-5-fluoro-3,4-dihydroxyphenyl)acetamido)-7-fluoro-2-hydroxy-3,4-dihydro-2H-benzo[e][1,2]oxaborinine-8-carboxylic acid] | 2 to 4 (≈ 2.74 to 5.48 µM) | 2 to 4 (≈ 2.74 to 5.48 µM) | 8 to 16 (≈ 11 to 21.9 µM) | 2 to 4 (≈ 2.74 to 5.48 µM) | 8 to 16 (≈ 11 to 21.9 µM) | < 1 | < 1 | 4 to 8 (≈ 5.48 to 11 µM) | 16 to 32 (≈ 21.9 to 43.8 µM) | > 64 | 16 to 32 (≈ 21.9 to 43.8 µM) |  |  |  |  | 
3 | O=C(NCCCN1CCN(C(=O)N[C@@H](C(=O)N[C@H]2Cc3ccc(F)c(C(=O)O)c3OB2O)c2cc(F)c(O)c(O)c2Cl)C1=O)c1ccccc1 [Example 253, (R)-3-((R)-2-(3-(3-benzamidopropyl)-2-oxoimidazolidine-1-carboxamido)-2-(2-chloro-5-fluoro-3,4-dihydroxyphenyl)acetamido)-7-fluoro-2-hydroxy-3,4-dihydro-2H-benzo[e][1,2]oxaborinine-8-carboxylic acid] | 2 to 4 (≈ 2.79 to 5.59 µM) | 2 to 4 (≈ 2.79 to 5.59 µM) | < 1 | < 1 | 2 to 4 (≈ 2.79 to 5.59 µM) |  | 2 to 4 (≈ 2.79 to 5.59 µM) |  |  |  |  | < 10 | 1 to 2 (≈ 1.4 to 2.79 µM) | 16 to 32 (≈ 22.4 to 44.7 µM) | > 64 | 16 to 32 (≈ 22.4 to 44.7 µM)
4 | O=C(O)c1cccc2c1OB(O)[C@@H](NC(=O)[C@@H](NC(=O)c1cnc3n(c1=O)CCS3)c1ccc(P(=O)(O)O)cc1)C2 (single isomer, unassigned) [Example 196] |  |  |  |  |  |  |  | 4 to 8 (≈ 6.66 to 13.3 µM) | 16 to 32 (≈ 26.7 to 53.3 µM) | 16 to 32 (≈ 26.7 to 53.3 µM) | 16 to 32 (≈ 26.7 to 53.3 µM) | 50 to 250 |  |  |  | 
5 | O=C(CN1CCN(C(=O)NC(C(=O)N[C@H]2Cc3ccc(F)c(C(=O)O)c3OB2O)c2cc(F)c(O)c(O)c2Cl)C(=O)C1=O)NCc1ccc(O)cc1 (stereo partly drawn) [Example 236, (3R)-3-(2-(2-chloro-5-fluoro-3,4-dihydroxyphenyl)-2-(4-(2-((4-hydroxybenzyl)amino)-2-oxoethyl)-2,3-dioxopiperazine-1-carboxamido)acetamido)-7-fluoro-2-hydroxy-3,4-dihydro-2H-benzo[e][1,2]oxaborinine-8-carboxylic acid] |  |  | 8 to 16 (≈ 10.7 to 21.5 µM) | 8 to 16 (≈ 10.7 to 21.5 µM) | 8 to 16 (≈ 10.7 to 21.5 µM) | 2 to 4 (≈ 2.68 to 5.36 µM) |  |  |  |  |  | < 10 |  |  |  | 
6 | O=C(CN1CCN(C(=O)NC(C(=O)N[C@H]2Cc3ccc(F)c(C(=O)O)c3OB2O)c2cc(F)c(O)c(O)c2Cl)C(=O)C1=O)NCc1ccccc1 (some centres unmarked) [Example 238] | 2 to 4 (≈ 2.74 to 5.48 µM) | 2 to 4 (≈ 2.74 to 5.48 µM) | 8 to 16 (≈ 11 to 21.9 µM) |  | 8 to 16 (≈ 11 to 21.9 µM) | > 128 | < 1 | 1 to 2 (≈ 1.37 to 2.74 µM) | 4 to 8 (≈ 5.48 to 11 µM) | > 64 | > 64 | < 10 |  |  |  | 
7 | O=C(O)c1c(F)ccc2c1OB(O)[C@@H](NC(=O)[C@H](NC(=O)N1CCN(CCNC(=O)[C@@H]3CCCN3)C(=O)C1=O)c1cc(F)c(O)c(O)c1Cl)C2 [Example 229, (R)-3-((R)-2-(2-chloro-5-fluoro-3,4-dihydroxyphenyl)-2-(2,3-dioxo-4-(2-((S)-pyrrolidine-2-carboxamido)ethyl)piperazine-1-carboxamido)acetamido)-7-fluoro-2-hydroxy-3,4-dihydro-2H-benzo[e][1,2]oxaborinine-8-carboxylic acid] | < 1 | < 1 | 2 to 4 (≈ 2.77 to 5.53 µM) | < 1 | < 1 |  | 2 to 4 (≈ 2.77 to 5.53 µM) | 4 to 8 (≈ 5.53 to 11.1 µM) | 4 to 8 (≈ 5.53 to 11.1 µM) | > 64 | 16 to 32 (≈ 22.1 to 44.3 µM) | < 10 |  |  |  | 
8 | CCN1CCN(C(=O)NC(C(=O)N[C@H]2Cc3cccc(C(=O)O)c3OB2O)c2ccc(P(=O)(O)O)c(F)c2O)C(=O)C1=O (stereo partly drawn) [Example 198, (3R)-3-(2-(4-ethyl-2,3-dioxopiperazine-1-carboxamido)-2-(3-fluoro-2-hydroxy-4-phosphonophenyl)acetamido)-2-hydroxy-3,4-dihydro-2H-benzo[e][1,2]oxaborinine-8-carboxylic acid] |  |  |  |  |  |  |  | < 1 | < 1 | 1 to 2 (≈ 1.61 to 3.21 µM) | 1 to 2 (≈ 1.61 to 3.21 µM) | 10 to 50 |  |  |  | 
9 | O=C(O)c1cccc2c1OB(O)[C@@H](NC(=O)[C@H](NC(=O)c1cnc3n(c1=O)CCS3)c1ccc(P(=O)(O)O)cc1)C2 (single isomer, unassigned) [Example 197] |  |  |  |  |  |  |  | 1 to 2 (≈ 1.67 to 3.33 µM) | 4 to 8 (≈ 6.66 to 13.3 µM) | 16 to 32 (≈ 26.7 to 53.3 µM) | 16 to 32 (≈ 26.7 to 53.3 µM) | < 10 |  |  |  | 
10 | O=C(NCCS(=O)(=O)N1CCN(C(=O)NC(C(=O)N[C@H]2Cc3ccc(F)c(C(=O)O)c3OB2O)c2cc(F)c(O)c(O)c2Cl)C1=O)c1ccccc1 (stereo partly drawn) [Example 260, (3R)-3-(2-(3-((2-benzamidoethyl)sulfonyl)-2-oxoimidazolidine-1-carboxamido)-2-(2-chloro-5-fluoro-3,4-dihydroxyphenyl)acetamido)-7-fluoro-2-hydroxy-3,4-dihydro-2H-benzo[e][1,2]oxaborinine-8-carboxylic acid] | 2 to 4 (≈ 2.61 to 5.22 µM) | 2 to 4 (≈ 2.61 to 5.22 µM) | 2 to 4 (≈ 2.61 to 5.22 µM) | < 1 | > 128 |  | 2 to 4 (≈ 2.61 to 5.22 µM) |  |  |  |  | < 10 | 4 to 8 (≈ 5.22 to 10.4 µM) | 16 to 32 (≈ 20.9 to 41.8 µM) | > 64 | 16 to 32 (≈ 20.9 to 41.8 µM)
